Source: patent US12685761B2, “VIP and VIP agonists, nanoparticles, and uses in inflammatory T-cell mediated disease” (Emory University, priority 2018, dated 2026)

System: VIP-KO B6 recipients
Assay: Short-term VIP administration in allo-BMT GvHD lethality model (FIG. 4)
Format: in vivo, mice
Conditions: VIP 10 μgram/day vs PBS from day 0 to day 10; lethally irradiated VIP-KO B6 recipients infused with 5M TCD BM plus 3×10^6 B10.BR T cells
Source text: Lethally irradiated WT and VIP-KO B6 recipients were infused with 5M TCD BM plus 3×10^6 B10.BR T cells.

vasoactive intestinal peptide [VIP]
acute GvHD mortality after allo-BMT: rescued VIP-KO recipients from acute GvHD mortality
